Data as given in patent US20260306525A1, “COMBINATION THERAPY GLUCOCORTICOIDS AND GINSENOSIDE” (FYTAGORAS B.V., priority 2023, published 2026).

Columns and labels:
pck1 = test: qPCR pck1 expression in zebrafish larvae; type: in vivo, zebrafish (Danio rerio)
Description: (§1) […] Groups of 15 larvae were collected in TRIzol reagent (ThermoFisher) and total RNA was isolated using miRNeasy mini kit (Qiagen, Hilden, Germany). For experiments in HeLa cells, cells were seeded in 6 well plates and after treatment, the cells were removed from the wells using TRIzol reagent and mRNA was isolated using miRNeasy mini kit (Qiagen) according to the manufacturer's instructions. The RNA samples were DNAse-treated utilizing the DNA-free™ DNA Removal Kit (ThermoFisher Scientific). The cDNA synthesis was performed using the iScript cDNA synthesis kit (Bio-Rad Laboratories, Hercules, CA, USA) using 1 μg of RNA per sample. For qPCR, 10 μM of forward primer and 10 μM of reverse primer, 12.5 μl of IQ SYBR Green Supermix (Bio-Rad Laboratories), and 2 μl of cDNA were added to the qPCR reaction mixture. […] The qPCR reactions were performed on a MyiQ-single-color real-time PCR detection system (Bio-Rad Laboratories), with initial denaturation for 3 min, 95° C., and 40 cycles of 15 s at 95.5° C., 15 s at 60° C., and 30 s at 72° C. Cycle threshold values (Ct values, i.e. the cycle numbers at which a threshold value of the fluorescence intensity was reached) were determined for each sample. The gene expression level for each sample was normalized using the expression of ppial (peptidylprolyl isomerase Ab (cyclophilin A)) for zebrafish samples, and 18S rRNA for human cells. The fold change per sample (compared to the respective control group) was calculated using the […]Ct method.
(§2) […] Per sample, groups of 15 larvae were collected in TRIzol reagent (Thermo Fisher Scientific, Waltham, MA, USA), and total RNA was isolated using the miRNeasy mini kit (Qiagen, Hilden, Germany). For similar experiments in Hela cells, cells were seeded in 6 well plates, and after 6 h of chemical treatment, the cells were removed from the wells using TRIzol reagent, and total RNA was isolated using the miRNeasy mini kit according to the manufacturer's instructions. The RNA samples were DNAse-treated utilizing the DNA-free™ DNA Removal Kit (Thermo Fisher Scientific). The cDNA synthesis was performed using the iScript cDNA synthesis kit (Bio-Rad Laboratories, Hercules, CA, USA) using 1 μg of RNA per sample. For the PCR reactions, 10 μM of forward and 10 μM of reverse primer, 12.5 μl of iQ SYBR Green Supermix (Bio-Rad), and 2 μl of cDNA were added to the qPCR reaction mixture. […] The reactions were performed on a MyiQ-single-color real-time PCR detection system (Bio-Rad Laboratories) with initial denaturation for 3 min at 95° C. and 40 cycles of 15 s at 95.5° C., 15 s at 60° C., and 30 s at 72° C. Cycle threshold values (Ct values, i.e. the cycle numbers at which a threshold value of the fluorescence intensity was reached) were determined for each sample. The gene expression level for each sample was normalized using the expression of ppial (peptidylprolyl isomerase Ab (cyclophilin A)) for zebrafish samples, 18S rRNA for human cells. The fold change per sample (compared to the respective control group) was calculated using the ΔΔCt method.

fkbp5 = test: qPCR fkbp5 expression in zebrafish larvae; type: in vivo, zebrafish (Danio rerio)
Description: as §1, §2

zebrafish larvae [1] = test: whole-body cortisol measurement of zebrafish larvae (ELISA); details: for whole-body cortisol level: Example 2, non-wounded
Description: Ethyl acetate was added to the homogenate. The homogenates were then centrifuged at 4° C. for 8 min at 11,000 rpm and the supernatant was collected and vaporized. A volume of 150 μl of 0.2% Bovine serum albumin (Sigma-Aldrich) dissolved in PBS was added to the samples and frozen. Whole-body cortisol levels of the zebrafish larvae were determined by ELISA (Demeditec Diagnostics GmbH, Kiel-Wellsee, Germany), following the manufacturer's instructions. In each experiment, three biological replicates were used for each treatment group, and the ELISA was performed using technical duplicates.
Tail fin wounding were performed at 2 days post-fertilization (dpf). At 96hpf, the treatments were stopped, and larvae were incubated in egg water until 5 dpf to avoid cross-reactivity between the compounds and the cortisol antibody used in the ELISA. At dpf, the larvae were collected in an Eppendorf tube (30 larvae per sample), and 100 μl of ice-cold egg water was added. After the excess water had been taken out, the samples were glaciated in ethanol (EtOH)/dry-ice bath. Subsequently, the larvae were homogenized using a BulletBlender® for 3 min at 8,000 rpm. Ethyl acetate was added to the homogenate. The homogenates were then centrifuged at 4° C. for 8 min at 11,000 rpm, and the supernatant was collected and vaporized. A volume of 150 μl of 0.2% bovine serum albumin (Sigma-Aldrich) dissolved in PBS was added to the samples and frozen. Whole-body cortisol levels of the zebrafish larvae were determined using a Cortisol free in Saliva ELISA kit (Demeditec Diagnostics GmbH, Kiel-Wellsee, Germany), following the manufacturer's instructions. In each experiment, three biological replicates were used for each treatment group, and the ELISA was performed using technical duplicates.

zebrafish larvae [2] = test: larval body length; details: for larval length: Example 2, 5 dpf
Description: (§5) In experiments in which the length of regenerated tail fin tissue after wounding, or the larval body length, was used as a readout, chemical treatments were started at 2 hours post-fertilization (hpf) and continued until 5 dpf, as indicated (15 larvae per treatment group). During this period, solutions were refreshed daily. For the regeneration experiments, tail fins were amputated at 2 dpf. At 5 dpf, larvae were fixed overnight in 4% PFA at 4° C. For determination of the larval length and the regeneration of the tail fins, larvae were imaged using a LeicaMZ16FA fluorescence stereomicroscope supported by LAS 3.7 software. The length of the entire larva or the newly grown tissue was measured using ImageJ software. The newly grown tissue can be visually distinguished from the old tissue, enabling precise measurement of its length.

gr = test: Gr transactivation activity in Tg(9xGCRE-HSV.UI23:EGFP)ia20 reporter larvae; type: in vivo, zebrafish (Danio rerio); details: Example 2, 24 h, 3 dpf
Description: (§3) To investigate the Gr transactivation activity in zebrafish larvae, the Tg(9xGCRE-HSV.UI23:EGFP)^ia20 reporter line was used, which expresses enhanced green fluorescent protein (EGFP) under the control of a promoter containing an array of nine GREs. […] The integrated intensity of the EGFP signal in the larvae was determined using ImageJ software.
as §3, with “Tg(9xGCRE-HSV.UI23:EGFP^ia20)” for “Tg(9xGCRE-HSV.UI23:EGFP)^ia20”

il8 = test: qPCR il8 expression in zebrafish larvae; type: in vivo, zebrafish (Danio rerio); details: Example 2, wounded larvae
Description: (§4) To determine mRNA levels of specific genes in zebrafish, 3 dpf larvae were used (wounded and non-wounded) and after 6 h of chemical treatments (2 h pre-wounding, 4 h post-wounding), as indicated. Per sample, groups of 15 larvae were collected in TRIzol reagent (Thermo Fisher Scientific, Waltham, MA, USA), and total RNA was isolated using the miRNeasy mini kit (Qiagen, Hilden, Germany). For similar experiments in Hela cells, cells were seeded in 6 well plates, and after 6 h of chemical treatment, the cells were removed from the wells using TRIzol reagent, and total RNA was isolated using the miRNeasy mini kit according to the manufacturer's instructions. The RNA samples were DNAse-treated utilizing the DNA-free™ DNA Removal Kit (Thermo Fisher Scientific). The cDNA synthesis was performed using the iScript cDNA synthesis kit (Bio-Rad Laboratories, Hercules, CA, USA) using 1 μg of RNA per sample. For the PCR reactions, 10 μM of forward and 10 μM of reverse primer, 12.5 μl of iQ SYBR Green Supermix (Bio-Rad), and 2 μl of cDNA were added to the qPCR reaction mixture. […] The reactions were performed on a MyiQ-single-color real-time PCR detection system (Bio-Rad Laboratories) with initial denaturation for 3 min at 95° C. and 40 cycles of 15 s at 95.5° C., 15 s at 60° C., and 30 s at 72° C. Cycle threshold values (Ct values, i.e. the cycle numbers at which a threshold value of the fluorescence intensity was reached) were determined for each sample. The gene expression level for each sample was normalized using the expression of ppial (peptidylprolyl isomerase Ab (cyclophilin A)) for zebrafish samples, 18S rRNA for human cells. The fold change per sample (compared to the respective control group) was calculated using the ΔΔCt method.

nfkbiaa = test: qPCR nfkbiaa expression in zebrafish larvae; type: in vivo, zebrafish (Danio rerio); details: for nfkbiaa expression: Example 2, 6 h treatment
Description: as §1, §2

mmp13 = test: qPCR mmp13 expression in zebrafish larvae; type: in vivo, zebrafish (Danio rerio); details: Example 2, wounded larvae
Description: as §4

zebrafish larvae [3] = test: tail fin regeneration assay; details: for tissue regeneration of tail fin: Example 2, amputation at 2 dpf, read at 5 dpf
Description: as §5

[4] = 3 dpf, wounded larvae, 6 h, 10 μM beclomethasone, 50 μM Rg1 or combination
[5] = 5 dpf, 6 h, beclomethasone 10 μM, Rg1 50 μM or combination
[6] = 5 dpf, 5 days, beclomethasone 10 μM, Rg1 50 μM or combination

SMILES	pck1 expression (pck1; Example 2, 6 h treatment)	fkbp5 expression (fkbp5; Example 2, 6 h treatment)	whole-body cortisol level (zebrafish larvae [1]; 5 dpf)	larval length (zebrafish larvae [2])	GFP fluorescence intensity (Gr transactivation) (gr)	il8 expression (il8)	nfkbiaa expression (nfkbiaa)	mmp13 expression (mmp13)	tissue regeneration of tail fin (zebrafish larvae [3])	also measured
CC(C)=CCC[C@](C)(O[C@@H]1O[C@H](CO)[C@@H](O)[C@H](O)[C@H]1O)[C@H]1CC[C@]2(C)[C@@H]1[C@H](O)C[C@@H]1[C@@]3(C)CC[C@H](O)C(C)(C)[C@@H]3[C@@H](O)C[C@]12C [F1]	did not increase the expression	did not increase the expression	did not show any side effects	did not show any side effects	none of the ginsenosides PPT, F1, Rh1, and Rg1 altered the fluorescence intensity	Only a minor effect	did not increase the expression	Only a minor effect	did not show any side effects	whole-body cortisol level upon wounding (zebrafish larvae [1]; Example 2, wounded at 2 dpf, 5 dpf): minor effect on the cortisol level and on tissue regeneration; cortisol effect upon wounding in presence of Gba2 inhibitor MZ31 (zebrafish larvae [1]; Example 2, wounded, with MZ31): These latter effects were Gba2-dependent; tissue regeneration upon wounding (zebrafish larvae [3]; Example 2, wounded at 2 dpf (second statement on FIG. 8F)): minor effect on the cortisol level and on tissue regeneration; tissue regeneration effect in presence of Gba2 inhibitor MZ31 (zebrafish larvae [3]; Example 2, wounded, with MZ31): These latter effects were Gba2-dependent
CC(C)=CCC[C@](C)(O)[C@H]1CC[C@]2(C)[C@@H]1[C@H](O)C[C@@H]1[C@@]3(C)CC[C@H](O)C(C)(C)[C@@H]3[C@@H](O)C[C@]12C [PPT, Protopanaxatriol]	did not increase the expression	did not increase the expression	did decrease the cortisol concentration	minor effect on larval length	none of the ginsenosides PPT, F1, Rh1, and Rg1 altered the fluorescence intensity	Only a minor effect	did not increase the expression	Only a minor effect	considerably inhibited the regeneration of the tail fin after wounding	
C[C@H]1C[C@H]2[C@@H]3CCC4=CC(=O)C=C[C@]4(C)[C@@]3(Cl)[C@@H](O)C[C@]2(C)[C@@]1(O)C(=O)CO [beclomethasone, reference compound]			decrease in cortisol level	decrease in larval length	significant increase in the GFP signal throughout the body of the larvae				inhibited the tissue regeneration	pck1 expression (pck1; [4]): upregulated the expression of pck1 and fkbp5; pck1 expression, short-term treatment (pck1; [5]): upregulated the expression; pck1 expression, long-term treatment (pck1; [6]): this upregulation of pck1 and nfkbiaa was significantly reduced after long-term treatment; fkbp5 expression (fkbp5; [4]): upregulated the expression of pck1 and fkbp5; fkbp5 expression, short-term treatment (fkbp5; 6 h, beclomethasone 10 μM, Rg1 50 μM or combination): upregulated the expression; fkbp5 expression, long-term treatment (fkbp5; 5 days, beclomethasone 10 μM, Rg1 50 μM or combination): the upregulation of fkbp5 did not decrease; whole body cortisol level (zebrafish larvae [1]; 0-4 dpf, 10 μM beclomethasone, 50 μM Rg1 or combination): reduced whole body cortisol levels; dose-response of whole-body cortisol level (zebrafish larvae [1]; beclomethasone 0.1, 1, 5, 10, 15 μM without or with 50 μM Rg1): dose-dependent effect; larval length at 5 dpf (zebrafish larvae [2]; 0-5 dpf, 10 μM beclomethasone, 50 μM Rg1 or combination): significantly decreased; nfkbiaa expression, short-term treatment (nfkbiaa; [5]): upregulated the expression; nfkbiaa expression, long-term treatment (nfkbiaa; [6]): this upregulation of pck1 and nfkbiaa was significantly reduced after long-term treatment; regeneration of amputated tail fin (length of regenerated tissue at 5 dpf) (zebrafish larvae [3]; 0-5 dpf, 10 μM beclomethasone or dexamethasone, 50 μM Rg1 or combinations, amputation at 2 dpf): inhibited the regeneration
